# Measured values from publication PMC12811658, “Design, Synthesis, and Structural Evolution of Pseudo‐Natural Product IDO1 Inhibitors and Degraders” (Angewandte Chemie (International Ed. in English), 2025).
# “Also recorded” adds a separate entry of the source.
# System: Kyn levels in BxPC3 cells (kynurenine generated by IDO1)
# Assay: Cellular Kyn assay (automated Kyn screening assay)
# Format: cell-based
# Settings: for IC50: Homo sapiens, BXPC-3, 48 h, IFN-γ, L-Trp and compounds 48 h, mean ± SD, read-out: IC50 (Kyn assay), reduction of kynurenine levels
SMILES,IC50 [µM],activity in cellular Kyn assay (in words)
"COc1ccc(NC(=O)OC[C@]23CN(S(=O)(=O)c4ccc(C(C)(C)C)cc4)C[C@H]2C[C@H]2C[C@@H]3C2(C)C)cc1 [compound 44, ((3aS,4R,6R,7aS)-2-((4-(tert-butyl)phenyl)sulfonyl)-5,5-dimethyloctahydro-3aH-4,6-methanoisoindol-3a-yl)methyl (4-methoxyphenyl)carbamate]",1.2 ± 0.2,
"CC1(C)[C@H]2C[C@@H]3CN(S(=O)(=O)c4cccs4)C[C@]3(COC(=O)Nc3ccc(I)cc3)[C@@H]1C2 [compound 63, ((3aS,4R,6R,7aS)-5,5-dimethyl-2-(thiophen-2-ylsulfonyl)octahydro-3aH-4,6-methanoisoindol-3a-yl)methyl (4-iodophenyl)carbamate]",3.5 ± 0.3,
"Cc1ccc(NC(=O)NC[C@]23CN(S(=O)(=O)c4ccc(C(C)(C)C)cc4)C[C@H]2C[C@H]2C[C@@H]3C2(C)C)cc1 [compound 7, 1-(((3aR,4R,6R,7aS)-2-((4-(tert-butyl)phenyl)sulfonyl)-5,5-dimethyloctahydro-3aH-4,6-methanoisoindol-3a-yl)methyl)-3-(p-tolyl) urea]",,did not improve activity
"Cc1ccc(NC(=O)OC[C@]23CN(S(=O)(=O)c4ccc(OC(F)(F)F)cc4)C[C@H]2C[C@H]2C[C@@H]3C2(C)C)cc1 [compound 58, ((3aS,4R,6R,7aS)-5,5-dimethyl-2-((4-(trifluoromethoxy)phenyl)sulfonyl)octahydro-3aH-4,6-methanoisoindol-3a-yl)methyl p-tolylcarbamate]",3 ± 1.3,
"Cc1ccc(OC(=O)OC[C@]23CN(S(=O)(=O)c4ccc(C(C)(C)C)cc4)C[C@H]2C[C@H]2C[C@@H]3C2(C)C)cc1 [compound 13, ((3aS,4R,6R,7aS)-2-((4-(tert-butyl)phenyl)sulfonyl)-5,5-dimethyloctahydro-3aH-4,6-methanoisoindol-3a-yl)methyl p-tolyl carbonate]",,did not improve activity; also recorded: inactive
"Cc1ccc(NC(=O)OC[C@]23CN(S(=O)(=O)c4ccc(C(F)(F)F)cc4)C[C@H]2C[C@H]2C[C@@H]3C2(C)C)cc1 [compound 56, ((3aS,4R,6R,7aS)-5,5-dimethyl-2-((4-(trifluoromethyl)phenyl)sulfonyl)octahydro-3aH-4,6-methanoisoindol-3a-yl)methyl p-tolylcarbamate]",2.5 ± 1.1,
"CC(C)(C)c1ccc(S(=O)(=O)N2C[C@@H]3C[C@@H]4[C@H](C[C@]3(COC(=O)Nc3ccc(I)cc3)C2)C4(C)C)cc1 [compound 21, ((3aR,4aS,5aR,6aR)-2-((4-(tert-butyl)phenyl)sulfonyl)-5,5-dimethyloctahydrocyclopropa[f]isoindol-3a(1H)-yl)methyl (4-iodophenyl)carbamate]",,inactive
"Cc1ccc(S(=O)(=O)N2C[C@H]3C[C@H]4C[C@H](C4(C)C)[C@@]3(COC(=O)Nc3ccc(I)cc3)C2)cc1 [compound 68, ((3aS,4R,6R,7aS)-5,5-dimethyl-2-tosyloctahydro-3aH-4,6-methanoisoindol-3a-yl)methyl (4-iodophenyl)carbamate]",0.72 ± 0.27,
"CC(C)(C)c1ccc(S(=O)(=O)N2C[C@H]3C[C@H]4C[C@H](C4(C)C)[C@@]3(COC(=O)Nc3ccc(O)cc3)C2)cc1 [compound 42, ((3aS,4R,6R,7aS)-2-((4-(tert-butyl)phenyl)sulfonyl)-5,5-dimethyloctahydro-3aH-4,6-methanoisoindol-3a-yl)methyl (4-hydroxyphenyl)carbamate]",> 10,
"Cc1cccc(S(=O)(=O)N2C[C@H]3C[C@H]4C[C@H](C4(C)C)[C@@]3(COC(=O)Nc3ccc(I)cc3)C2)c1 [compound 67, ((3aS,4R,6R,7aS)-5,5-dimethyl-2-(m-tolylsulfonyl)octahydro-3aH-4,6-methanoisoindol-3a-yl)methyl (4-iodophenyl)carbamate]",1.1 ± 0.5,
